Experimental data: ChEMBL document CHEMBL2057077, “Exploration of pipecolate sulfonamides as binders of the FK506-binding proteins 51 and 52” (J Med Chem, 2012); call rule not given here

target: T1, Peptidyl-prolyl cis-trans isomerase FKBP4 (Homo sapiens, UniProt Q02790); assay: Binding affinity to FKBP52 FK1 domain by competitive fluorescence polarization assay; conditions: not given
T1 sequence (Q02790 whole entry): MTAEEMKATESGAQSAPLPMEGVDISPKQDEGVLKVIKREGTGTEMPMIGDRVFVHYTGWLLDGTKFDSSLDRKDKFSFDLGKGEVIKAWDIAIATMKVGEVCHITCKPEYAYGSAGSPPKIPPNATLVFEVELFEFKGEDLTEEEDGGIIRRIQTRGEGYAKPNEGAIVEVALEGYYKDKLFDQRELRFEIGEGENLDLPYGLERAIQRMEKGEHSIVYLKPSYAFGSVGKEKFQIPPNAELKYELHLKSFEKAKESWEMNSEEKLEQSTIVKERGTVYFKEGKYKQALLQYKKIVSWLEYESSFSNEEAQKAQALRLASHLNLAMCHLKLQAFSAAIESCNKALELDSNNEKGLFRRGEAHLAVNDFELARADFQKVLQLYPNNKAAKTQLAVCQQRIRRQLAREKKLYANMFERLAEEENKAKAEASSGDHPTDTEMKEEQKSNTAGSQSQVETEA

In the case of `COc1ccc(CC[C@@H](OC(=O)[C@@H]2CCCCN2S(=O)(=O)c2cc(OC)c(OC)c(C(=O)O)c2)c2cccc(OCC(=O)O)c2)cc1OC`, the IC50 is reported as “Not Active”.

same assay, conditions: read-out: IC50

Point of comparison: `COc1ccc(CC[C@@H](OC(=O)[C@@H]2CCCCN2S(=O)(=O)c2cccc(C#N)c2)c2cccc(OCC(=O)O)c2)cc1OC`, IC50 69.9 µM. Against it:
- COc1ccc(CC[C@@H](OC(=O)[C@@H]2CCCCN2S(=O)(=O)c2cc3ccccc3s2)c2cccc(OCC(=O)O)c2)cc1OC — higher, > 100 µM
- COc1ccc(CC[C@@H](OC(=O)[C@@H]2CCCCN2S(=O)(=O)c2cccc(N)c2)c2cccc(OCC(=O)O)c2)cc1OC — higher, > 100 µM
- O=C(OC(CCCc1cccnc1)CCCc1cccnc1)[C@@H]1CCCCN1S(=O)(=O)c1cc(Cl)c(O)c(Cl)c1 — 4.6-fold lower, 15.1 µM
- COc1ccc(CC[C@@H](OC(=O)[C@@H]2CCCCN2S(=O)(=O)c2ccc(-c3ncccn3)cc2)c2cccc(OCC(=O)O)c2)cc1OC — higher, > 100 µM
- COc1ccc(CC[C@@H](OC(=O)[C@@H]2CCCCN2S(=O)(=O)c2ccc3c(c2)CC(=O)N3)c2cccc(OCC(=O)O)c2)cc1OC — higher, > 100 µM
- COc1ccc(OCCOC(=O)[C@@H]2CCCCN2S(=O)(=O)c2ccc3ncsc3c2)cc1OC — higher, > 100 µM
- COc1ccc(CC[C@@H](OC(=O)[C@@H]2CCCCN2S(=O)(=O)c2cc(Br)cc(C(F)(F)F)c2)c2cccc(OCC(=O)O)c2)cc1OC — higher, > 100 µM
- COc1ccc(S(=O)(=O)N2CCCC[C@H]2C(=O)O[C@H](CCc2ccc(OC)c(OC)c2)c2cccc(OCC(=O)O)c2)cc1Cl — 1.7-fold lower, 40.3 µM
- COc1ccc(CC[C@@H](OC(=O)[C@@H]2CCCCN2S(=O)(=O)c2ccoc2)c2cccc(OCC(=O)O)c2)cc1OC — higher, > 100 µM
- COc1ccc(CC[C@@H](NC(=O)[C@@H]2CCCCN2S(=O)(=O)c2ccc3[nH]c(=O)sc3c2)c2cccc(OCC(=O)O)c2)cc1OC — higher, > 100 µM
- COc1ccc(CC[C@@H](OC(=O)[C@@H]2CCCCN2S(=O)(=O)c2ccc3[nH]c(=O)oc3c2)c2cccc(OCC(=O)O)c2)cc1OC — higher, > 100 µM
- COc1ccc(CC[C@@H](OC(=O)[C@@H]2CCCCN2S(=O)(=O)c2ccc(OC)c(OC)c2)c2cccc(OCC(=O)O)c2)cc1OC — higher, > 100 µM
- COc1ccc(OCCOC(=O)[C@@H]2CCCCN2S(=O)(=O)c2cc(Cl)cc(Cl)c2)cc1OC — higher, > 100 µM
- COc1ccc(CC[C@@H](OC(=O)[C@@H]2CCCCN2S(=O)(=O)c2ccc3ncsc3c2)c2cccc(OCCN3CCOCC3)c2)cc1OC — not separable, > 50 µM
- COc1ccc(CC[C@@H](OC(=O)[C@@H]2CCCCN2S(=O)(=O)c2cc(C(F)(F)F)cc(C(F)(F)F)c2)c2cccc(OCC(=O)O)c2)cc1OC — higher, > 100 µM
- COc1ccc(CC[C@@H](OC(=O)[C@@H]2CCCCN2S(=O)(=O)c2cccc([N+](=O)[O-])c2)c2cccc(OCC(=O)O)c2)cc1OC — higher, > 100 µM
- COc1ccc(CC[C@@H](OC(=O)[C@@H]2CCCCN2S(=O)(=O)c2cc(N)c3c(c2)CCO3)c2cccc(OCC(=O)O)c2)cc1OC — higher, > 100 µM
- COC(=O)c1cc(C(=O)OC)cc(S(=O)(=O)N2CCCC[C@H]2C(=O)O[C@H](CCc2ccc(OC)c(OC)c2)c2cccc(OCC(=O)O)c2)c1 — higher, > 100 µM
- CCC(C)(C)C(=O)C(=O)N1CCCC[C@H]1C(=O)O[C@H](CCc1ccc(OC)c(OC)c1)c1cccc(OCC(=O)O)c1 — 7.5-fold lower, 9.37 µM

target: Peptidyl-prolyl cis-trans isomerase FKBP1A (Homo sapiens, UniProt P62942); assay: Binding affinity to FKBP12 by competitive fluorescence polarization assay; conditions: not given
Sequence (P62942 whole entry): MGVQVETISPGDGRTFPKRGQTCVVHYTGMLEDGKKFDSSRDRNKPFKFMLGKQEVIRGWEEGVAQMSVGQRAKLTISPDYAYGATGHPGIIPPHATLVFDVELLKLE

`COc1ccc(CC[C@@H](OC(=O)[C@@H]2CCCCN2S(=O)(=O)c2cc(OC)c(OC)c(C(=O)O)c2)c2cccc(OCC(=O)O)c2)cc1OC` was tested, and the IC50 was “Not Active”.

same assay, conditions: read-out: IC50

Point of comparison: `COc1ccc(CC[C@@H](OC(=O)[C@@H]2CCCCN2S(=O)(=O)c2cc(Br)cc(C(F)(F)F)c2)c2cccc(OCC(=O)O)c2)cc1OC`, IC50 2.4 µM. Against it:
- COc1ccc(CC[C@@H](OC(=O)[C@@H]2CCCCN2S(=O)(=O)c2cc3ccccc3s2)c2cccc(OCC(=O)O)c2)cc1OC — 1.9-fold higher, 4.6 µM
- COc1ccc(CC[C@@H](OC(=O)[C@@H]2CCCCN2S(=O)(=O)c2cccc(N)c2)c2cccc(OCC(=O)O)c2)cc1OC — within 1.5-fold, 1.9 µM
- O=C(OC(CCCc1cccnc1)CCCc1cccnc1)[C@@H]1CCCCN1S(=O)(=O)c1cc(Cl)c(O)c(Cl)c1 — 2.8-fold lower, 0.87 µM
- COc1ccc(CC[C@@H](OC(=O)[C@@H]2CCCCN2S(=O)(=O)c2ccc(-c3ncccn3)cc2)c2cccc(OCC(=O)O)c2)cc1OC — within 1.5-fold, 1.8 µM
- COc1ccc(CC[C@@H](OC(=O)[C@@H]2CCCCN2S(=O)(=O)c2cccc(C#N)c2)c2cccc(OCC(=O)O)c2)cc1OC — 1.6-fold higher, 3.8 µM
- COc1ccc(CC[C@@H](OC(=O)[C@@H]2CCCCN2S(=O)(=O)c2ccc3c(c2)CC(=O)N3)c2cccc(OCC(=O)O)c2)cc1OC — 3.6-fold lower, 0.66 µM
- COc1ccc(OCCOC(=O)[C@@H]2CCCCN2S(=O)(=O)c2ccc3ncsc3c2)cc1OC — 12-fold lower, 0.2 µM
- COc1ccc(S(=O)(=O)N2CCCC[C@H]2C(=O)O[C@H](CCc2ccc(OC)c(OC)c2)c2cccc(OCC(=O)O)c2)cc1Cl — 4-fold lower, 0.6 µM
- COc1ccc(CC[C@@H](OC(=O)[C@@H]2CCCCN2S(=O)(=O)c2ccoc2)c2cccc(OCC(=O)O)c2)cc1OC — 4.2-fold higher, 10.1 µM
- COc1ccc(CC[C@@H](NC(=O)[C@@H]2CCCCN2S(=O)(=O)c2ccc3[nH]c(=O)sc3c2)c2cccc(OCC(=O)O)c2)cc1OC — 1.7-fold lower, 1.4 µM
- COc1ccc(CC[C@@H](OC(=O)[C@@H]2CCCCN2S(=O)(=O)c2ccc3[nH]c(=O)oc3c2)c2cccc(OCC(=O)O)c2)cc1OC — 3.2-fold lower, 0.75 µM
- COc1ccc(CC[C@@H](OC(=O)[C@@H]2CCCCN2S(=O)(=O)c2ccc(OC)c(OC)c2)c2cccc(OCC(=O)O)c2)cc1OC — 3.2-fold higher, 7.6 µM
- COc1ccc(OCCOC(=O)[C@@H]2CCCCN2S(=O)(=O)c2cc(Cl)cc(Cl)c2)cc1OC — higher, > 100 µM
- COc1ccc(CC[C@@H](OC(=O)[C@@H]2CCCCN2S(=O)(=O)c2ccc3ncsc3c2)c2cccc(OCCN3CCOCC3)c2)cc1OC — higher, > 50 µM
- COc1ccc(CC[C@@H](OC(=O)[C@@H]2CCCCN2S(=O)(=O)c2cc(C(F)(F)F)cc(C(F)(F)F)c2)c2cccc(OCC(=O)O)c2)cc1OC — 2.1-fold higher, 5.1 µM
- COc1ccc(CC[C@@H](OC(=O)[C@@H]2CCCCN2S(=O)(=O)c2cccc([N+](=O)[O-])c2)c2cccc(OCC(=O)O)c2)cc1OC — within 1.5-fold, 1.9 µM
- COc1ccc(CC[C@@H](OC(=O)[C@@H]2CCCCN2S(=O)(=O)c2cc(N)c3c(c2)CCO3)c2cccc(OCC(=O)O)c2)cc1OC — within 1.5-fold, 2.57 µM
- COC(=O)c1cc(C(=O)OC)cc(S(=O)(=O)N2CCCC[C@H]2C(=O)O[C@H](CCc2ccc(OC)c(OC)c2)c2cccc(OCC(=O)O)c2)c1 — 1.9-fold higher, 4.5 µM
- CCC(C)(C)C(=O)C(=O)N1CCCC[C@H]1C(=O)O[C@H](CCc1ccc(OC)c(OC)c1)c1cccc(OCC(=O)O)c1 — 21-fold lower, 0.114 µM

target: T2, Peptidyl-prolyl cis-trans isomerase FKBP5 (Homo sapiens, UniProt Q13451); assay: Binding affinity to FKBP51 FK1 domain by competitive fluorescence polarization assay; conditions: not given
T2 sequence (Q13451 whole entry): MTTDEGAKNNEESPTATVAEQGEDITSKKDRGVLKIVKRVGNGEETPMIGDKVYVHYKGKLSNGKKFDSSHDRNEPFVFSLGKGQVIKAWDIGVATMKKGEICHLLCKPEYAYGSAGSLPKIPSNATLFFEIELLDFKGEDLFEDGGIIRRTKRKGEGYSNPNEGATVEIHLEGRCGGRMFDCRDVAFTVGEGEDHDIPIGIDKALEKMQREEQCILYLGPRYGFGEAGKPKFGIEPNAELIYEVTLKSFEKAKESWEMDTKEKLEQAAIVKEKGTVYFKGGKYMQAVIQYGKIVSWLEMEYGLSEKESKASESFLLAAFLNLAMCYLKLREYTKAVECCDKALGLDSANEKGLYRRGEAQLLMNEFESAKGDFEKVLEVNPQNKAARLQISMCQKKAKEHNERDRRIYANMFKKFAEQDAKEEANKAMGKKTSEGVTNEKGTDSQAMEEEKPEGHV

For `COc1ccc(CC[C@@H](OC(=O)[C@@H]2CCCCN2S(=O)(=O)c2cc(OC)c(OC)c(C(=O)O)c2)c2cccc(OCC(=O)O)c2)cc1OC`, the IC50 was “Not Active”.

same assay, conditions: read-out: IC50

Point of comparison: `COc1ccc(OCCOC(=O)[C@@H]2CCCCN2S(=O)(=O)c2ccc3ncsc3c2)cc1OC`, IC50 66.3 µM. Against it:
- COc1ccc(CC[C@@H](OC(=O)[C@@H]2CCCCN2S(=O)(=O)c2cccc(N)c2)c2cccc(OCC(=O)O)c2)cc1OC — within 1.5-fold, 45.4 µM
- O=C(OC(CCCc1cccnc1)CCCc1cccnc1)[C@@H]1CCCCN1S(=O)(=O)c1cc(Cl)c(O)c(Cl)c1 — 6.8-fold lower, 9.69 µM
- COc1ccc(CC[C@@H](OC(=O)[C@@H]2CCCCN2S(=O)(=O)c2cccc(C#N)c2)c2cccc(OCC(=O)O)c2)cc1OC — 2.3-fold lower, 28.5 µM
- COc1ccc(CC[C@@H](OC(=O)[C@@H]2CCCCN2S(=O)(=O)c2ccc3c(c2)CC(=O)N3)c2cccc(OCC(=O)O)c2)cc1OC — higher, > 100 µM
- COc1ccc(CC[C@@H](OC(=O)[C@@H]2CCCCN2S(=O)(=O)c2cc(Br)cc(C(F)(F)F)c2)c2cccc(OCC(=O)O)c2)cc1OC — higher, > 100 µM
- COc1ccc(S(=O)(=O)N2CCCC[C@H]2C(=O)O[C@H](CCc2ccc(OC)c(OC)c2)c2cccc(OCC(=O)O)c2)cc1Cl — 2.2-fold lower, 29.6 µM
- COc1ccc(CC[C@@H](OC(=O)[C@@H]2CCCCN2S(=O)(=O)c2ccoc2)c2cccc(OCC(=O)O)c2)cc1OC — higher, > 100 µM
- COc1ccc(CC[C@@H](NC(=O)[C@@H]2CCCCN2S(=O)(=O)c2ccc3[nH]c(=O)sc3c2)c2cccc(OCC(=O)O)c2)cc1OC — higher, > 100 µM
- COc1ccc(CC[C@@H](OC(=O)[C@@H]2CCCCN2S(=O)(=O)c2ccc3[nH]c(=O)oc3c2)c2cccc(OCC(=O)O)c2)cc1OC — higher, > 100 µM
- COc1ccc(CC[C@@H](OC(=O)[C@@H]2CCCCN2S(=O)(=O)c2ccc(OC)c(OC)c2)c2cccc(OCC(=O)O)c2)cc1OC — higher, > 100 µM
- COc1ccc(OCCOC(=O)[C@@H]2CCCCN2S(=O)(=O)c2cc(Cl)cc(Cl)c2)cc1OC — higher, > 100 µM
- COc1ccc(CC[C@@H](OC(=O)[C@@H]2CCCCN2S(=O)(=O)c2ccc3ncsc3c2)c2cccc(OCCN3CCOCC3)c2)cc1OC — not separable, > 50 µM
- COc1ccc(CC[C@@H](OC(=O)[C@@H]2CCCCN2S(=O)(=O)c2cc(C(F)(F)F)cc(C(F)(F)F)c2)c2cccc(OCC(=O)O)c2)cc1OC — higher, > 100 µM
- COc1ccc(CC[C@@H](OC(=O)[C@@H]2CCCCN2S(=O)(=O)c2cccc([N+](=O)[O-])c2)c2cccc(OCC(=O)O)c2)cc1OC — within 1.5-fold, 47.2 µM
- COc1ccc(CC[C@@H](OC(=O)[C@@H]2CCCCN2S(=O)(=O)c2cc(N)c3c(c2)CCO3)c2cccc(OCC(=O)O)c2)cc1OC — higher, > 100 µM
- COC(=O)c1cc(C(=O)OC)cc(S(=O)(=O)N2CCCC[C@H]2C(=O)O[C@H](CCc2ccc(OC)c(OC)c2)c2cccc(OCC(=O)O)c2)c1 — higher, > 100 µM
- CCC(C)(C)C(=O)C(=O)N1CCCC[C@H]1C(=O)O[C@H](CCc1ccc(OC)c(OC)c1)c1cccc(OCC(=O)O)c1 — 11-fold lower, 6.3 µM
